Publication PMC12192727, “Strategies to Develop Na,K-ATPase-α4 Inhibitors as Male Contraceptives” (International Journal of Molecular Sciences, 2025)
Where two headings read alike, the source gives them in different places.

How the values were obtained:
[1] = In vivo pharmacokinetic study; set-up: species or system CD-1 mice; conditions: for Plasma concentration (mean): BLOQ = 0.5 ng/mL; for MRT inf: read-out: MRTInf_obs
Procedure: Male CD-1 mice (approximately 6–8 weeks old, weighing 20–25 g, supplied by Vital River, Beijing, China) were used for the pharmacokinetic studies. Each mouse (n = 2) received either a bolus intravenous injection via the tail vein or oral gavage administration of the test compound. The formulation consisted of 20% HP-b-CD in PBS (pH 7.4), administered at a dose level of 10 mg/kg. The intravenous dose volume was 5 mL/kg, while the oral dose volume was 10 mL/kg. […] At the end of the study, the mice were euthanized by the inhalation of rising carbon dioxide concentrations. Samples were centrifuged at 4000× g for 5 min at 4 °C to obtain plasma. The plasma samples were stored at −75 ± 15 °C before analysis. Plasma samples were analyzed using the LC/MS/MS method. WinNonlin (PhoenixTM, version 8.3) software was employed for pharmacokinetic analysis calculations. The experimental details are reported in the Supporting Information. […]
Snap Shot PK of 45 in CD1-Mice
Formulations IV 20% HP-b-CD in PBS
(1 picture or pasted object on this page, not shown here)
Dosing Solutions: IV 2 mg/mL
IV&PO Plasma: 0 .5, 1, 3, and 5 h
Blood Sampling @ post dose
Mobile Phase A 5% Acetonitrile in Water (0.1%Formic acid)
Quantification Internal Standard Method
10 uL of plasma sample + 5 uL of blank solution +
200 uL of acetonitrile for PPE (protein precipitation
1. BLOQ = 0.5 ng/mL for plasma
3. PK parameters were estimated by non-compartmental model using WinNonlin 8.3
4. The bioavailability (F%) was calculated as following: […]

[2] = target: hERG channel (Homo sapiens, UniProt Q12809)
Chain of hERG channel (Q12809 whole entry): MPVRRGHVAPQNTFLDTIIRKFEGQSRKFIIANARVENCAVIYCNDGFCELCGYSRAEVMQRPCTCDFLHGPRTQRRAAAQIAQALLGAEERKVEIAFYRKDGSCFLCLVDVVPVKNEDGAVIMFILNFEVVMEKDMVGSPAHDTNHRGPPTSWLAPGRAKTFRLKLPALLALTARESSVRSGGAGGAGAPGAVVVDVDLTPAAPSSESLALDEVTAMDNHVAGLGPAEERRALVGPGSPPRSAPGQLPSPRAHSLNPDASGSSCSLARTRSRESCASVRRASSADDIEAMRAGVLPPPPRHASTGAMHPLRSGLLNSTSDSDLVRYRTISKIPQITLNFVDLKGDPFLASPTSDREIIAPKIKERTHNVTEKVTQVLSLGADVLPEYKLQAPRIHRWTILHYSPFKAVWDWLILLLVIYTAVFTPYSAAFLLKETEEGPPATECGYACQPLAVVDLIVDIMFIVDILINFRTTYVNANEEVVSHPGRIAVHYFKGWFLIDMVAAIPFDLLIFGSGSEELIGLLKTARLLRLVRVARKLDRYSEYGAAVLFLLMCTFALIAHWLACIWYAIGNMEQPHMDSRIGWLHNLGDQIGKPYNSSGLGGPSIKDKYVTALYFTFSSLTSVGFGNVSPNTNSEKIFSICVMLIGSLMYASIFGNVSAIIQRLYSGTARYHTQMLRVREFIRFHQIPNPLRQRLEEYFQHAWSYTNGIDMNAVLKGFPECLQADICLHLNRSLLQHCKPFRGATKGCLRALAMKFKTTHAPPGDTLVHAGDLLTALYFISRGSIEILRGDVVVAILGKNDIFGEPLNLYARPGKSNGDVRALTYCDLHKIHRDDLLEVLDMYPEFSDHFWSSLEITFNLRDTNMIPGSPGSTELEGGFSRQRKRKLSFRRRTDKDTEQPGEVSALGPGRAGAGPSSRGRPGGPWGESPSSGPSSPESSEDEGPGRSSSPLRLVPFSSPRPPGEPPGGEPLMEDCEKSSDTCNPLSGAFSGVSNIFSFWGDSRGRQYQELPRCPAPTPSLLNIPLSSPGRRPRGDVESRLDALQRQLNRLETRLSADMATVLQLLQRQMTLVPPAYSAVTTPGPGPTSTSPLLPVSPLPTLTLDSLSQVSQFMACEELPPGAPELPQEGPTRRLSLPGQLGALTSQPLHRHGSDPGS

[3] = male, CD-1, mouse, plasma, CD1 mice, IV 10 mg/kg
[4] = male, CD-1, mouse, plasma, CD1 mice, PO 10 mg/kg
[5] = male, CD-1, mouse, plasma, IV 10 mg/kg
[6] = male, CD-1, mouse, plasma, PO 10 mg/kg
[7] = male, CD-1, mouse, CD1 mice, IV 10 mg/kg, plasma

SMILES: CC12CCC(=O)C=C1CCCC2n1cc(-c2ccccc2)nn1 (stereo not drawn) [Compound 45, 4a-Methyl-5-(4-phenyl-1H-1,2,3-triazol-1-yl)-4,4a,5,6,7,8-hexahydronaphthalen-2(3H)-one]
- AUC_%Extrap_obs ([1]; CD1 mice, IV 10 mg/kg): 0.250%
- AUClast/D ([1]; CD1 mice, IV 10 mg/kg): 55.9 kg·ng·h/mL/mg
- Vss_obs ([1]; CD1 mice, IV 10 mg/kg (supplement)): 1.10 L/kg
- AUC_%Extrap_obs ([1]; CD1 mice, PO 10 mg/kg): 3.43%
- AUClast/D ([1]; CD1 mice, PO 10 mg/kg): 7.43 kg·ng·h/mL/mg
- F% (oral bioavailability) ([1]; CD1 mice, PO 10 mg/kg, 10 mg/kg): 13.7%
- Plasma concentration (mean) ([1]; IV 10 mg/kg, 3 h): BLOQ
- Plasma concentration (mean) ([1]; IV 10 mg/kg, 5 h): BLOQ
- bioavailability ([1]; male, CD-1, mouse, plasma, po, 10 mg/kg, CD1 mice, PO 10 mg/kg, read-out: F% (oral bioavailability)): 14%
- AUC(0-inf) [1, 3]: 561 ng·h/mL
- AUC(0-t) [1, 3]: 559 ng·h/mL
- half-life [1, 3]: 7.5 min
- Vd ([1]; male, CD-1, mouse, plasma, CD1 mice, IV 10 mg/kg (Table 5), read-out: Vss): 1.1 L/kg
- MRT inf [1, 3]: 3.7 min
- AUC(0-inf) [1, 4]: 77 ng·h/mL
- AUC(0-t) [1, 4]: 74.3 ng·h/mL
- Tmax [1, 4]: 30 min
- half-life [1, 4]: 64.2 min
- MRT inf [1, 4]: 67.8 min
- concentration at 0.5 h [1, 5]: 124 ng/mL
- concentration at 1 h [1, 5]: 7.76 ng/mL
- concentration at 0.5 h [1, 6]: 79.7 ng/mL
- concentration at 1 h [1, 6]: 22.8 ng/mL
- concentration at 3 h ([1]; male, CD-1, mouse, plasma, PO 10 mg/kg, 3 h): 2.14 ng/mL
- concentration at 5 h ([1]; male, CD-1, mouse, plasma, PO 10 mg/kg, 5 h): 1.71 ng/mL
- clearance ([1]; male, CD-1, mouse, plasma, mice, intravenous 10 mg/kg, read-out: clearance rate): 297 mL/min/kg
- C0 [1, 7]: 1980 ng/mL
- Cmax [1, 7]: 124 ng/mL
- Cmax ([1]; male, CD-1, mouse, CD1 mice, PO 10 mg/kg, plasma): 79.7 ng/mL
- hERG IC50 [2]: weak inhibitor
